The target of the assay is T1, Human recombinant enteropeptidase (Homo sapiens, UniProt P98073).
T1 construct: purchased ITSI-Biosciences LLC #REN-260
T1 sequence (P98073 whole entry): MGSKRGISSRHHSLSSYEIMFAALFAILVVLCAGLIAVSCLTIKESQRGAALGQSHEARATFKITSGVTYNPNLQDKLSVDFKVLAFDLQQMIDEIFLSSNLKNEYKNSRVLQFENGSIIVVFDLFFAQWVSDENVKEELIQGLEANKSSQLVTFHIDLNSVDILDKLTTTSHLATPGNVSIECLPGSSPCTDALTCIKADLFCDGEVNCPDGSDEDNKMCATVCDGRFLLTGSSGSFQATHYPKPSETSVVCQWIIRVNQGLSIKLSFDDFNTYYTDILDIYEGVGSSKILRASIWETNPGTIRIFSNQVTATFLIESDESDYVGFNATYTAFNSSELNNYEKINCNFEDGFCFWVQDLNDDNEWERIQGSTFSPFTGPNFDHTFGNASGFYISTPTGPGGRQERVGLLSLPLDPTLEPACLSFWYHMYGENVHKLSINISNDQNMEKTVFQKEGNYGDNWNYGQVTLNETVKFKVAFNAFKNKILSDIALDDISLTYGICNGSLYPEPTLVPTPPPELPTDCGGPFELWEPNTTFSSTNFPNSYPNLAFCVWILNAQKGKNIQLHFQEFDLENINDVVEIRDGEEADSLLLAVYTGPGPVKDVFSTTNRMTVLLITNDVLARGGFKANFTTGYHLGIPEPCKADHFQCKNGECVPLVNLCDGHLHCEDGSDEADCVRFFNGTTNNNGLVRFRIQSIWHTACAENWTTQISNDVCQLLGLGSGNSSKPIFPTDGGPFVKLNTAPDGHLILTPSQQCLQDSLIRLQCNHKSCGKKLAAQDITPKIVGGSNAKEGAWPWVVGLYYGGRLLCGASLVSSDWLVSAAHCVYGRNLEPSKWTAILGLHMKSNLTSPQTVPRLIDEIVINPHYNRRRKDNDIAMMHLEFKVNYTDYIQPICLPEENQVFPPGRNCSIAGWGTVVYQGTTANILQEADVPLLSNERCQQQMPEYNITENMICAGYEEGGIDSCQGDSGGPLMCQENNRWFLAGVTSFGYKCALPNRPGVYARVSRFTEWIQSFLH
Briefly: Human enteropeptidase inhibitory activity (Test Example 1). Type of assay: biochemical. The settings on record: 3.3 μM test compound; inhibition rate from fluorescence intensity at 2 hours after the start of the reaction; read-out: 3.3 μM Inhibition. The procedure, abridged:
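Recombinant human enteropeptidase in 50 mM Tricine pH 8.0, 0.01% Tween 20, 10 mM CaCl2, with a 5FAM/CPQ2-quenched peptide substrate (2.1 μM solution before mixing). Compound came from 1 mM DMSO stock diluted 100-fold in buffer. Fluorescence (ex 485/em 535 nm) at 2 h gave % inhibition versus no-compound and no-enzyme controls.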
The term inhibition denotes the change of the read-out against control, counted positive when it falls. On to `N=C(N)Nc1ccc2c(c1)CCCOc1c(cccc1C(=O)N(CC(=O)O)Cc1cccc(CN(CC(=O)O)CC(=O)O)c1)OC2=O` [Example 116, N-(3-((Bis(carboxymethyl)amino)methyl)benzyl)-N-((10-carbamimidamido-13-oxo-6,7,8,13-tetrahydrodibenzo[b,f][1,4]dioxecin-4-yl)carbonyl)glycine], for which the inhibition at 3.3 µM was 99%.

For `N=C(N)Nc1ccc2c(c1)CCCOc1c(cc(CCC(=O)O)cc1C(=O)N[C@@H](CC(=O)O)C(=O)O)OC2=O` [Example 117, N-((10-carbamimidamido-2-(2-carboxyethyl)-13-oxo-6,7,8,13-tetrahydro-dibenzo[b,f] [1,4]dioxecin-4-yl)carbonyl)-L-aspartic acid], the inhibition at 3.3 µM is 100%.

Take `CN(C(=O)c1c(CCC(=O)O)ccc2c1OCCCc1cc(NC(=N)N)ccc1C(=O)O2)[C@@H](CC(=O)O)C(=O)O` [Example 118, N-((10-Carbamimidamido-3-(2-carboxyethyl)-13-oxo-6,7,8,13-tetrahydrodibenzo[b,f][1,4]dioxecin-4-yl)carbonyl)-N-methyl-L-aspartic acid]: the inhibition at 3.3 µM was found to be 101%.

For `N=C(N)Nc1ccc2c(c1)CCCOc1c(ccc(CCC(=O)O)c1C(=O)N(CC(=O)O)CC(=O)O)OC2=O` [Example 119, 3-(4-(Bis(carboxymethyl)carbamoyl)-10-carbamimidamido-13-oxo-6,7,8,13-tetrahydrodibenzo[b,f][1,4]dioxecin-3-yl)propanoic acid], the inhibition at 3.3 µM was 101%.

Take `N=C(N)Nc1ccc2c(c1)CCCOc1c(cccc1C(=O)N(CC(=O)O)[C@@H](Cc1ccc(OCCNCC(=O)O)cc1)C(=O)O)OC2=O` [Example 121, N-((10-Carbamimidamido-13-oxo-6,7,8,13-tetrahydrodibenzo[b,f][1,4]dioxecin-4-yl)carbonyl)-N-(carboxymethyl)-O-(2-((carboxymethyl)amino)ethyl)-L-tyrosine]: the inhibition at 3.3 µM came to 101%.

With `N=C(N)Nc1ccc2c(c1)CCCOc1c(ccc(CCC(=O)NC(CC(=O)O)CC(=O)O)c1C(=O)N[C@@H](Cc1ccc(O)cc1)C(=O)O)OC2=O` [Example 123, 3-((3-(10-carbamimidamido-4-(((1S)-1-carboxy-2-(4-hydroxyphenyl)ethyl)carbamoyl)-13-oxo-6,7,8,13-tetrahydro-dibenzo[b,f] [1,4]dioxecin-3-yl)propanoyl)amino) pentanedioic acid], the inhibition at 3.3 µM was 101%.

As to `N=C(N)Nc1ccc2c(c1)CCCOc1c(ccc(CCC(=O)N(CC(=O)O)CC(=O)O)c1C(=O)N[C@@H](Cc1ccc(O)cc1)C(=O)O)OC2=O` [Example 124, N-((3-(3-(bis(carboxymethyl)amino)-3-oxopropyl)-10-carbamimidamido-13-oxo-6,7,8,13-tetrahydro-dibenzo[b,f] [1,4]dioxecin-4-yl)carbonyl)-L-tyrosine], the inhibition at 3.3 µM worked out at 101%.

On to `N=C(N)Nc1ccc2c(c1)CCCOc1c(cccc1C(=O)N(CC(=O)O)Cc1cccc(CN(CC(=O)O)CC(=O)O)n1)OC2=O` [Example 126, N-((6-((bis(carboxy-methyl)amino)methyl)pyridin-2-yl)methyl)-N-((10-carbamimidamido-13-oxo-6,7,8,13-tetrahydro-dibenzo[b,f] [1,4]dioxecin-4-yl)carbonyl)glycine], for which the inhibition at 3.3 µM was determined as 100%.

As to `N=C(N)Nc1ccc2c(c1)CCCOc1c(cccc1C(=O)N(CC(=O)O)Cc1ccccc1C(=O)O)OC2=O` [Example 127], the inhibition at 3.3 µM amounted to 100%.

With `N=C(N)Nc1ccc2c(c1)CCCCc1c(cccc1C(=O)N(CC(=O)O)Cc1cccc(C(=O)O)c1)OC2=O` [Example 128], the inhibition at 3.3 µM came to 100%.

In the case of `N=C(N)Nc1ccc2c(c1)CCCOc1c(ccc(CCC(=O)N(CC(=O)O)CC(=O)O)c1C(=O)O)OC2=O` [Example 129, 3-(3-(bis(carboxy-methyl)amino)-3-oxopropyl)-10-carbamimidamido-13-oxo-6,7,8,13-tetrahydro-dibenzo[b,f] [1,4]dioxecine-4-carboxylic acid], the inhibition at 3.3 µM was 100%.

For the compound `COc1ccc(C[C@H](NC(=O)c2c(CCC(=O)N(CC(=O)O)CC(=O)O)ccc3c2OCCCc2cc(NC(=N)N)ccc2C(=O)O3)C(=O)O)cc1` [Example 130, N-((3-(3-(bis(carboxymethyl)amino)-3-oxopropyl)-10-carbamimidamido-13-oxo-6,7,8,13-tetrahydro-dibenzo[b,f] [1,4]dioxecin-4-yl)carbonyl)-O-methyl-L-tyrosine], the inhibition at 3.3 µM was 99%.

On to `N=C(N)Nc1ccc2c(c1)CCCOc1c(ccc(CCC(=O)NC(CC(=O)O)CC(=O)O)c1C(=O)O)OC2=O` [Example 131, 3-((3-(10-carbamimidamido-4-carboxy-13-oxo-6,7,8,13-tetrahydro-dibenzo[b,f] [1,4]dioxecin-3-yl)propanoyl)amino) pentanedioic acid], for which the inhibition at 3.3 µM is 100%.

Take `COc1ccc(C[C@H](NC(=O)c2c(CCC(=O)NC(CC(=O)O)CC(=O)O)ccc3c2OCCCc2cc(NC(=N)N)ccc2C(=O)O3)C(=O)O)cc1` [Example 132, 3-((3-(10-carbamimidamido-4-(((1S)-1-carboxy-2-(4-methoxyphenyl)ethyl)carbamoyl)-13-oxo-6,7,8,13-tetrahydro-dibenzo[b,f] [1,4]dioxecin-3-yl)propanoyl)amino) pentanedioic acid]: the inhibition at 3.3 µM turned out to be 100%.

On to `N=C(N)Nc1ccc2c(c1)CCCOc1c(cccc1C(=O)N(CC(=O)O)[C@@H](Cc1ccccc1)C(=O)O)OC2=O` [Example 133, N-((10-carbamimidamido-13-oxo-6,7,8,13-tetrahydro-dibenzo[b,f] [1,4]dioxecin-4-yl)carbonyl)-N-(carboxymethyl)-L-phenylalanine], for which the inhibition at 3.3 µM was determined as 100%.

Turning to `N=C(N)Nc1ccc2c(c1)CCCOc1c(cccc1C(=O)N(CCC(=O)O)Cc1cccc(C(=O)O)c1)OC2=O` [Example 134, 3-((((10-carbamimidamido-13-oxo-6,7,8,13-tetrahydro-dibenzo[b,f] [1,4]dioxecin-4-yl)carbonyl)(2-carboxyethyl)amino)methyl)benzoic acid], the inhibition at 3.3 µM was found to be 100%.

Take `C[C@@H](C(=O)O)N(Cc1cccc(C(=O)O)c1)C(=O)c1cccc2c1OCCCc1cc(NC(=N)N)ccc1C(=O)O2` [Example 135, 3-((((10-Carbamimidamido-13-oxo-6,7,8,13-tetrahydrodibenzo[b,f][1,4]dioxecin-4-yl)carbonyl) ((1S)-1-carboxyethyl)amino)methyl)benzoic acid]: the inhibition at 3.3 µM is 100%.

Take `N=C(N)Nc1ccc2c(c1)CCCOc1c(cccc1C(=O)N(CCOCc1ccccc1)C(CC(=O)O)C(=O)O)OC2=O` (centres unmarked) [Example 137]: the inhibition at 3.3 µM was 100%.

Regarding `N=C(N)Nc1ccc2c(c1)CCCOc1c(cccc1C(=O)N(CCC(=O)O)[C@@H](CC(=O)O)C(=O)O)OC2=O` [Example 138, N-((10-carbamimidamido-13-oxo-6,7,8,13-tetrahydro-dibenzo[b,f] [1,4]dioxecin-4-yl)carbonyl)-N-(2-carboxyethyl)-L-aspartic acid], the inhibition at 3.3 µM turned out to be 100%.

For the compound `COC(=O)CN(C(=O)c1cccc2c1OCCCc1cc(NC(=N)N)ccc1C(=O)O2)[C@@H](CC(=O)O)C(=O)O` [Example 139, N-((10-carbamimidamido-13-oxo-6,7,8,13-tetrahydro-dibenzo[b,f] [1,4]dioxecin-4-yl)carbonyl)-N-(2-methoxy-2-oxoethyl)-L-aspartic acid], the inhibition at 3.3 µM came to 100%.

With `N=C(N)Nc1ccc2c(c1)CCCOc1c(cccc1C(=O)N(CC(=O)O)CC(=O)N(CC(=O)O)Cc1ccccc1)OC2=O` [Example 140, N-((10-Carbamimidamido-13-oxo-6,7,8,13-tetrahydrodibenzo[b,f][1,4]dioxecin-4-yl)carbonyl)-N-(carboxymethyl)glycyl-N-benzylglycine], the inhibition at 3.3 µM turned out to be 100%.

As to `N=C(N)Nc1ccc2c(c1)CCCOc1c(cccc1C(=O)N(CC(=O)O)CC(=O)N(CC(=O)O)Cc1cccc(C(=O)O)c1)OC2=O` [Example 141, N-((10-Carbamimidamido-13-oxo-6,7,8,13-tetrahydrodibenzo[b,f][1,4]dioxecin-4-yl)carbonyl)-N-(carboxymethyl)glycyl-N-(3-carboxybenzyl)glycine], the inhibition at 3.3 µM came to 100%.

For the compound `N=C(N)Nc1ccc2c(c1)CCCOc1c(cccc1C(=O)N(CC(=O)O)Cc1ccc(CC(=O)O)cc1)OC2=O` [Example 142, N-((10-carbamimidamido-13-oxo-6,7,8,13-tetrahydro-dibenzo[b,f] [1,4]dioxecin-4-yl)carbonyl)-N-(4-(carboxymethyl)benzyl)glycine], the inhibition at 3.3 µM was determined as 98%.

As for `N=C(N)Nc1ccc2c(c1)CCCOc1c(cccc1C(=O)N(Cc1ccc(C(=O)O)cc1)[C@@H](CC(=O)O)C(=O)O)OC2=O` [Example 143, N-((10-Carbamimidamido-13-oxo-6,7,8,13-tetrahydrodibenzo[b,f][1,4]dioxecin-4-yl)carbonyl)-N-(4-carboxybenzyl)-L-aspartic acid], the inhibition at 3.3 µM amounted to 100%.

In the case of `N=C(N)Nc1ccc2c(c1)CCCOc1c(cccc1C(=O)N(Cc1cccc(C(=O)O)c1)C(CC(=O)O)CC(=O)O)OC2=O` [Example 144, 3-(((10-Carbamimidamido-13-oxo-6,7,8,13-tetrahydrodibenzo[b,f][1,4]dioxecin-4-yl)carbonyl) (3-carboxybenzyl)amino)pentanedioic acid], the inhibition at 3.3 µM was 99%.

As for `N=C(N)Nc1ccc2c(c1)CCCOc1c(cccc1C(=O)N(CC(=O)O)Cc1cc(C(=O)O)cc(C(=O)O)c1)OC2=O` [Example 146, 5-((((10-carbamimidamido-13-oxo-6,7,8,13-tetrahydro-dibenzo[b,f] [1,4]dioxecin-4-yl)carbonyl)-(carboxy-methyl)-amino)methyl) isophthalic acid], the inhibition at 3.3 µM worked out at 102%.

For the origin of these results see patent US9975903B2, “Condensed heterocyclic compound” (Takeda Pharmaceutical Company Limited, priority 2014, dated 2018).
